In patent publication US20230310386A1, “INJECTABLE PHARMACEUTICAL COMPOSITIONS AND USES THEREOF” (Intervet Inc., priority 2020, published 2023):
Where “and” joins values, the source holds several entries; their conditions need not be identical. Identical values can stand only once.

Assay: Dose accuracy study of the reconstituted composition comprising moxidectin and fluralaner
Type: physicochemical
Conditions: reconstituted composition of Example 9, 1 mL doses #1-6
Protocol: The vial comprising moxidectin microspheres from Example 3 and fluralaner particles from Example 7 were reconstituted with 17 mL of the aqueous carrier of Example 6. During reconstitution the vial containing the moxidectin microspheres and fluralaner particles was rotated while being held horizontally throughout carrier addition.
Once all the carrier was added, the vial was shaken for 1 minute.
Herein, the vial with the reconstituted composition as described above was manipulated in one of the following ways: • vigorously hand shaken for 1, 2 or 3 minutes prior to sampling; • vigorously hand shaken for 3 minutes and mixed using the syringe 5 times prior to sampling; or • vigorously hand shaken for 3 minutes, mixed using the syringe 5 times and vortexed for […] prior to sampling.
After the solid material was completely suspended, six 1 mL doses were sampled from the vial. Prior to each dose, the vial was vigorously shaken for 15 seconds to avoid settling between samples.
Each of the six doses were transferred to a separate 50 mL volumetric flask along with 10 mL of water: then the samples were diluted to volume with 50/50 acetonitrile/isopropanol and sonicated for 20 minutes.
These samples were analysed to determine the moxidectin concentration.
Additionally, 1 mL of the samples were transferred into separate 25 mL volumetric flasks and diluted with 40/40/20 acetonitrile/isopropanol/water. The fluralaner concentrations were determined from these diluted samples.

Cc1cc(C2=NOC(c3cc(Cl)cc(Cl)c3)(C(F)(F)F)C2)ccc1C(=O)NCC(=O)NCC(F)(F)F (centres unmarked) [Fluralaner, 4-[5-(3,5-dichlorophenyl)-5-trifluoromethyl-4,5-dihydroisoxazol-3-yl]-2-methyl-N-[(2,2,2-trifluoro-ethylcarbamoyl)-methyl]-benzamide]
Fluralaner Percent Label Claim (hand shaken for 1 minute): 104.38 Percent Label Claim and 90.80 Percent Label Claim and 102.68 Percent Label Claim and 101.83 Percent Label Claim and 106.97 Percent Label Claim and 103.52 Percent Label Claim
Fluralaner Percent Label Claim (hand shaken for 2 minutes): 80.44 Percent Label Claim and 103.67 Percent Label Claim and 102.82 Percent Label Claim and 84.95 Percent Label Claim and 99.01 Percent Label Claim and 107.40 Percent Label Claim
Fluralaner Percent Label Claim (hand shaken for 3 minutes): 95.36 Percent Label Claim and 102.59 Percent Label Claim and 95.41 Percent Label Claim and 99.43 Percent Label Claim and 108.06 Percent Label Claim and 88.68 Percent Label Claim
Fluralaner Percent Label Claim (hand shaken for 3 minutes and mixed using a syringe): 105.95 Percent Label Claim and 104.31 Percent Label Claim and 89.74 Percent Label Claim and 105.87 Percent Label Claim and 104.26 Percent Label Claim and 103.83 Percent Label Claim
Fluralaner Percent Label Claim (hand shaken for 3 minutes, mixed using a syringe, and vortexed): 100.86 Percent Label Claim and 106.80 Percent Label Claim and 105.14 Percent Label Claim and 105.86 Percent Label Claim and 106.37 Percent Label Claim and 104.61 Percent Label Claim
